Measurements as given in patent US20230250108A1, “TETRAHYDROISOQUINOLINE COMPOUNDS AND USE THEREOF” (JIANGSU SIMCERE PHARMACEUTICAL CO., LTD., priority 2020, published 2023).

Columns and labels:
[1] = system: Z-138 subcutaneous tumor models; test: In vivo drug efficacy experiment in mice, Z-138 subcutaneous tumor model
Source text: Experimental materials: Z138 cells were purchased from ATCC; IMDM culture solution, penicillin-streptomycin and 0.25% trypsin-EDTA were purchased from Gibco; horse serum and PBS were purchased from Hyclone; and Matrigel was purchased from Corning.
Animal information: CB17-SCID mice (female, 6-7 weeks, body weight: about 14-20 g) were purchased from Shanghai Lingchang Biotechnology Co., Ltd. The mice were fed in SPF environment and each cage position was individually ventilated. All animals had free access to standard certified commercial laboratory food and water.
Cell culture: Human mantle cell lymphoma Z-138 cell lines were cultured in vitro and the culture conditions involve: IMDM (cell culture solution) supplemented with 10% horse serum and 1% penicillin-streptomycin solution, 37° C., 5% CO2 incubator. Conventional digestion treatment with 0.25% trypsin-EDTA digestion solution was carried out twice a week for passage. When the cell saturation was 85%-90%, and the number reached the requirement, the cells were collected and counted.
Cell inoculation: 0.1 ml/(containing 1×10^7) Z-138 cell suspension (PBS Matrigel=1:1) was inoculated subcutaneously on the right back of each mouse. At day 18 post inoculation, when the average tumor volume measured has reached about 125 mm^3, grouping and administration were performed by using the randomized stratification and grouping method based on the tumor volume and animal body weight. PBS was a phosphate buffer free of Ca and Mg ions, and Matrigel was a matrix gel.
Administration: Compound 002 was administered at the doses of 1.5 mg/kg, 5 mg/kg, or 15 mg/kg, PO, twice daily (BID)×3 weeks. 6 mice per group.
The diameter of the tumor was measured with vernier calipers twice a week. The calculation formula of tumor volume was V=0.5a×b2, wherein a and b represented the long and short diameters of the tumor, respectively. The body weights of the mice were weighed twice a week.
The tumor-inhibiting efficacy of the compound was evaluated using tumor growth inhibition (TGI) (%).
TGI (%)=[(1−(average tumor volume at the end of administration in a certain treatment group−average tumor volume at the beginning of administration in the treatment group)/(average tumor volume at the end of administration in the solvent control group−average tumor volume at the beginning of administration in the solvent control group)]×100%.

[2] = Pharmacokinetic experiment in mice; assay type: in vivo, CB17-SCID mice
Source text: Experimental materials: GB17-SCID mice were purchased from Beijing Vital River Laboratory Animal Technology Co., Ltd.; DMSO, HP-β-CD (Hydroxypropyl-β-cyclodextrin), MC (methyl cellulose) and acetonitrile were purchased from Merck & Co., Inc. (USA), and K2EDTA anticoagulation tubes were purchased from Jiangsu Xinkang Medical Instrument Co., Ltd.
Experiment method: Six female CB17-SCID mice (20-30 g, 4-6 weeks) were randomized into 2 groups, 3 mice/group. Group 1 was given compound 002 via tail vein injection at a dose of 2 mg/kg, and the vehicle was 5% of DMSO+95% of 10% HP-β-CD aqueous solution; and group 2 was given compound 002 orally at a dose of 10 mg/kg, and the vehicle was 0.5% MC aqueous solution. Prior to the experiment, the animals were given food and water as usual. At pre-dose and 0.083 (only for the vein injection group), 0.25, 0.5, 1, 2, 4, 6, 8 and 24 h post-dose, blood was sampled from the mice in each group from the vein. The whole blood sample collected was placed in a K2EDTA anticoagulation tube and centrifuged for 5 min (4000 rpm, 4° C.) and then the plasma was taken for detection.
10 μL of the mouse plasma sample was taken and 150 μL of acetonitrile solvent (wherein internal standard compound was contained) was added to precipitate proteins. After the mixture was vortexed for 0.5 min, centrifugation (4700 rpm, 4° C.) was performed for 15 min. The supernatant was diluted 2-fold with water containing 0.05% (v/v) formic acid and 3 μL was injected into the LC-MS/MS system (AB Sciex Triple Quad 6500+) for the quantitative detection. The concentrations of the samples were determined with the present of plasma standard curve (linear range: 0.5-1000 ng/mL) of CB17-SCID mice and quality control samples. For the preparation of 10-fold diluted samples, 2 μL of mouse plasma sample was taken and 18 μL of blank plasma was added. After the mixture was vortexed for 0.5 min, 300 μL of acetonitrile solvent (wherein internal standard compound was contained) was added to precipitate proteins. The other processing steps were identical to those for the samples not diluted.

[3] = tested doses 1.5, 5, 15 mg/kg BID
[4] = female, CB17-SCID, mouse, plasma, 10 mg/kg, Mice PO (10 mpk)

Question: For `CCN1CCN(C[C@@H](O)[C@@H]2Cc3ccccc3CN2)C(=O)c2ccc(C(=O)N3CCC4(CC3)CC(OC)C4)cc21.Cl` [Compound 002, 1-ethyl-4-((R)-2-hydroxy-2-((S)-1,2,3,4-tetrahydroisoquinolin-3-yl)ethyl)-8-(2-methoxy-7-azaspiro[3.5]nonane-7-carbonyl)-1,2,3,4-tetrahydro-5H-benzo[e][1,4]diazepin-5-one hydrochloride], which TGI ([1]; 1.5 mg/kg PO BID x 3 weeks) is on record?
Answer: The TGI was 36.0%.

Question: And the Average tumor volume ([1]; 1.5 mg/kg PO BID, 0 Day)?
Answer: The Average tumor volume was 125 mm^3.

Question: And the Average tumor volume ([1]; 1.5 mg/kg PO BID, 4 Day)?
Answer: The Average tumor volume was 151 mm^3.

Question: And the Average tumor volume ([1]; 1.5 mg/kg PO BID, 7 Day)?
Answer: Its Average tumor volume is 203 mm^3.

Question: And the Average tumor volume ([1]; 1.5 mg/kg PO BID, 11 Day)?
Answer: The Average tumor volume was 374 mm^3.

Question: And the Average tumor volume ([1]; 1.5 mg/kg PO BID, 14 Day)?
Answer: Its Average tumor volume is 436 mm^3.

Question: And the Average tumor volume ([1]; 1.5 mg/kg PO BID, 18 Day)?
Answer: Its Average tumor volume is 567 mm^3.

Question: And the Average tumor volume ([1]; 1.5 mg/kg PO BID, 21 Day)?
Answer: Its Average tumor volume is 689 mm^3.

Question: What about the TGI ([1]; 5 mg/kg PO BID x 3 weeks) of the same molecule?
Answer: Its TGI is 47.8%.

Question: What about the Average tumor volume ([1]; 5 mg/kg PO BID, 0 Day) of the same molecule?
Answer: The Average tumor volume was 124 mm^3.

Question: What about the Average tumor volume ([1]; 5 mg/kg PO BID, 4 Day) of the same molecule?
Answer: Its Average tumor volume is 157 mm^3.

Question: What about the Average tumor volume ([1]; 5 mg/kg PO BID, 7 Day) of the same molecule?
Answer: The Average tumor volume was 197 mm^3.

Question: And the Average tumor volume ([1]; 5 mg/kg PO BID, 11 Day)?
Answer: The Average tumor volume was 281 mm^3.

Question: And the Average tumor volume ([1]; 5 mg/kg PO BID, 14 Day)?
Answer: Its Average tumor volume is 310 mm^3.

Question: What about the Average tumor volume ([1]; 5 mg/kg PO BID, 18 Day) of the same molecule?
Answer: The Average tumor volume was 452 mm^3.

Question: What about the Average tumor volume ([1]; 5 mg/kg PO BID, 21 Day) of the same molecule?
Answer: The Average tumor volume was 585 mm^3.

Question: What about the TGI ([1]; 15 mg/kg PO BID x 3 weeks) of the same molecule?
Answer: Its TGI is 112.5%.

Question: And the Average tumor volume ([1]; 15 mg/kg PO BID, 0 Day)?
Answer: Its Average tumor volume is 126 mm^3.

Question: And the Average tumor volume ([1]; 15 mg/kg PO BID, 4 Day)?
Answer: The Average tumor volume was 140 mm^3.

Question: What about the Average tumor volume ([1]; 15 mg/kg PO BID, 7 Day) of the same molecule?
Answer: The Average tumor volume was 113 mm^3.

Question: What about the Average tumor volume ([1]; 15 mg/kg PO BID, 11 Day) of the same molecule?
Answer: Its Average tumor volume is 59 mm^3.

Question: And the Average tumor volume ([1]; 15 mg/kg PO BID, 14 Day)?
Answer: Its Average tumor volume is 34 mm^3.

Question: And the Average tumor volume ([1]; 15 mg/kg PO BID, 18 Day)?
Answer: The Average tumor volume was 18 mm^3.

Question: What about the Average tumor volume ([1]; 15 mg/kg PO BID, 21 Day) of the same molecule?
Answer: Its Average tumor volume is 16 mm^3.

Question: What about the Death in mice [1, 3] of the same molecule?
Answer: The Death in mice was “nor did they cause any death in mice”.

Question: What about the “Effect on body weights of the mice” value [1, 3] of the same molecule?
Answer: The value was “do not significantly affect the body weights of the mice”.

Question: What about the Tolerability [1, 3] of the same molecule?
Answer: Its Tolerability is “the mice can tolerate the doses”.

Question: What about the “Effect on tumor growth” value ([1]; twice daily at 1.5 mg/kg, 5 mg/kg and 15 mg/kg) of the same molecule?
Answer: Its value is “significant inhibitory effects on tumor growth”.

Question: What about the “Effect on tumor size” value ([1]; twice daily at 15 mg/kg) of the same molecule?
Answer: The value was “effect of shrinking tumor”.

Question: What about the Cl_obs ([2]; Mice IV (2 mpk)) of the same molecule?
Answer: Its Cl_obs is 61.1 ± 6.2 mL/min/kg.

Question: What about the F ([2]; Mice PO (10 mpk)) of the same molecule?
Answer: The F was 96.5 ± 20.5%.

Question: What about the half-life ([2]; female, CB17-SCID, mouse, plasma, 2 mg/kg, Mice IV (2 mpk)) of the same molecule?
Answer: Its half-life is 3.56 ± 0.55 h.

Question: What about the Vd ([2]; female, CB17-SCID, mouse, plasma, 2 mg/kg, Mice IV (2 mpk), read-out: Vss—obs) of the same molecule?
Answer: Its Vd is 8.2 ± 0.6 L/kg.

Question: What about the AUC(0-t) [2, 4] of the same molecule?
Answer: Its AUC(0-t) is 2650 ± 563 ng·h/mL.

Question: What about the Cmax [2, 4] of the same molecule?
Answer: Its Cmax is 827 ± 79 ng/mL.

Question: And the Tmax [2, 4]?
Answer: The Tmax was 0.33 ± 0.14 h.

Question: And the half-life [2, 4]?
Answer: The half-life was 2.68 ± 0.2 h.
